Data on eleven molecules can be found in US20110105491A1, “THIAZOLIDINE COMPOUNDS AS OREXIN RECEPTOR ANTAGONISTS” (priority 2008, published 2011).

Where two headings read alike, the source gives them in different places.

The target in experiment [1] is T1, human orexin-1 receptor (Homo sapiens, UniProt O43613).
T1 construct: expressed in transfected cells; host or cells: Chinese hamster ovary (CHO) cells
T1 sequence (O43613 1-425): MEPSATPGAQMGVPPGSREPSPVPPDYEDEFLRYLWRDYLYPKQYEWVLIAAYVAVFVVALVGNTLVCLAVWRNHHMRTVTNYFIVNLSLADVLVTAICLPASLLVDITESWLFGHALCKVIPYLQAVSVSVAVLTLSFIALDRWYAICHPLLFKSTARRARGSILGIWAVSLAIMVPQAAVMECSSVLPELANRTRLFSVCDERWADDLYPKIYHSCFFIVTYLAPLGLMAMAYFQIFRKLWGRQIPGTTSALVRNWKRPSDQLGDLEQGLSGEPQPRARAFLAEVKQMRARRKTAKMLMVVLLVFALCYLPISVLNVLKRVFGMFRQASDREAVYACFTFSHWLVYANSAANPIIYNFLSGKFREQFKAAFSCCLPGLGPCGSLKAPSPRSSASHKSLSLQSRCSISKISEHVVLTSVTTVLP
The experiment can be described thus: FLIPR calcium assay of orexin receptor antagonistic activity, CHO cells expressing human orexin-1 receptor. The conditions noted are these: read-out: OX1 IC50. Type of experiment: cell-based. As for the experimental part:
(§1) The orexin receptor antagonistic activity of the compounds of formula (I) is determined in accordance with the following experimental method.
(§2) Chinese hamster ovary (CHO) cells expressing the human orexin-1 receptor and the human orexin-2 receptor, respectively, are grown in culture medium (Ham F-12 with L-Glutamine) containing 300 μg/ml G418, […] penicillin, 100 μg/ml streptomycin and 10% heat inactivated fetal calf serum (FCS). The cells are seeded at 20′000 cells/well into 384-well black clear bottom sterile plates (Greiner). The seeded plates are incubated overnight at 37° C. in 5% CO2.
(§3) Human orexin-A as an agonist is prepared as 1 mM stock solution in MeOH:water (1:1), diluted in HBSS containing 0.1% bovine serum albumin (BSA), NaHCO3: 0.375 g/l and 20 mM HEPES for use in the assay at a final concentration of 3 nM.
(§4) Antagonists are prepared as 10 mM stock solution in DMSO, then diluted in 384-well plates using DMSO followed by a transfer of the dilutions into in HBSS containing 0.1% bovine serum albumin (BSA), NaHCO3: 0.375 g/l and 20 mM HEPES. On the day of the assay, 50 μl of staining buffer (HBSS containing 1% FCS, 20 mM HEPES, NaHCO3: 0.375 g/l, 5 mM probenecid (Sigma) and 3 μM of the fluorescent calcium indicator fluo-4 AM (1 mM stock solution in DMSO, containing 10% pluronic) is added to each well. The 384-well cell-plates are incubated for 50 min at 37° C. in 5% CO2 followed by equilibration at rt for 30-120 min before measurement.
(§5) Within the Fluorescent Imaging Plate Reader (FLIPR Tetra, Molecular Devices), antagonists are added to the plate in a volume of 10 μl/well, incubated for 10 min and finally […] of agonist is added. Fluorescence is measured for each well at 1 second intervals, and the height of each fluorescence peak is compared to the height of the fluorescence peak induced by 3 nM orexin-A with vehicle in place of antagonist. For each antagonist, the IC50 value (the concentration of compound needed to inhibit 50% of the agonistic response) is determined and may be normalized using the obtained IC50 value of a on-plate reference compound (normalized values in Table 1 are indicated by an asterisk *). Optimized conditions were achieved by adjustment of pipetting speed and cell splitting regime. The calculated IC50 values of the compounds may fluctuate depending on the daily cellular assay performance. Fluctuations of this kind are known to those skilled in the art.

In experiment [2] the target is T2, human orexin-2 receptor (Homo sapiens, UniProt O43614).
T2 construct: expressed in transfected cells; host or cells: Chinese hamster ovary (CHO) cells
T2 sequence (O43614 1-444): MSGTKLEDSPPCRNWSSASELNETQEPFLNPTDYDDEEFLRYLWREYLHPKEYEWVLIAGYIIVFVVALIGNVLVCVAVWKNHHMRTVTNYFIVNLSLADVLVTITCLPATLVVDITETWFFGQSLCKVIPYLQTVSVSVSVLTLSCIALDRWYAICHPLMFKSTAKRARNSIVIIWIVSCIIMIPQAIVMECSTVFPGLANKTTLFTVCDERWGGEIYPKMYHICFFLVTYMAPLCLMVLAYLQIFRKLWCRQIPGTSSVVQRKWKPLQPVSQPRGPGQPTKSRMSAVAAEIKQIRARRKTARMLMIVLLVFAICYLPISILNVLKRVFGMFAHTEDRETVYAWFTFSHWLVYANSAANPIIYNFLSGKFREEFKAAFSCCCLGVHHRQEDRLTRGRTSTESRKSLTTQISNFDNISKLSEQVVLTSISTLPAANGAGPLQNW
The experiment can be described thus: FLIPR calcium assay of orexin receptor antagonistic activity, CHO cells expressing human orexin-2 receptor. Type of experiment: cell-based. The following applies: read-out: OX2 IC50. As for the experimental part: as §1, §2, §3, §4, §5

Experiment [3] relates to rat model. The following applies: cited from earlier work.
For experiment [4], the system named is rat model of post-traumatic stress disorder. The following applies: cited from earlier work.
Experiment [5] has as its system rat. The following applies: cited from earlier work.
[6] abbreviates: 3 nM orexin-A as agonist, not normalized, *2/*3 = geometric mean of n = 2/3 values.

For `O=C(NCC1SCCN1C(=O)c1nc(C2CC2)sc1-c1cccc(F)c1)c1cccc2c1CCO2` (racemic) [Example 116, rac-2,3-Dihydro-benzofuran-4-carboxylic acid {3-[2-cyclopropyl-5-(3-fluoro-phenyl)-thiazole-4-carbonyl]-thiazolidin-2-ylmethyl}-amide], the IC50 (commonly the midpoint of a concentration-inhibition curve) in experiment [1] (setting [6]) stood at 2 nM; in experiment [2] (setting [6]), 5 nM.

`Cc1nc(C(=O)N2CCSC2CNC(=O)c2cccc3ncsc23)c(-c2ccc(C)c(F)c2)s1` (racemic) [Example 120, rac-Benzothiazole-7-carboxylic acid {3-[5-(3-fluoro-4-methyl-phenyl)-2-methyl-thiazole-4-carbonyl]-thiazolidin-2-ylmethyl}-amide]: the IC50 was 8 nM in experiment [1] (setting [6]) and 7 nM in experiment [2] (setting [6]).

In the case of `Cc1nc(C(=O)N2CCSC2CNC(=O)c2nn(C)c3ccccc23)c(-c2ccc(C)c(F)c2F)s1` (racemic) [Example 126, rac-1-Methyl-1H-indazole-3-carboxylic acid {3-[5-(2,3-difluoro-4-methyl-phenyl)-2-methyl-thiazole-4-carbonyl]-thiazolidin-2-ylmethyl}-amide], the IC50 in experiment [1] (setting [6]) and in experiment [2] (setting [6]) was 11 nM throughout.

Turning to `Cc1cccc(-c2sc(N(C)C)nc2C(=O)N2CCSC2CNC(=O)c2cccc3c2CCO3)c1` (racemic) [Example 128, rac-2,3-Dihydro-benzofuran-4-carboxylic acid [3-(2-dimethylamino-5-m-tolyl-thiazole-4-carbonyl)-thiazolidin-2-ylmethyl]-amide], the values for the IC50 in experiment [1] (setting [6]) and in experiment [2] (setting [6]) were 12 nM and 14 nM, respectively.

`CCc1onc(C)c1C(=O)NCC1SCCN1C(=O)c1nc(C)sc1-c1cccc(C)c1` (racemic) [Example 140, rac-5-Ethyl-3-methyl-isoxazole-4-carboxylic acid [3-(2-methyl-5-m-tolyl-thiazole-4-carbonyl)-thiazolidin-2-ylmethyl]-amide]: the IC50 in experiment [1] and in experiment [2] was 9 nM throughout.

In the case of `Cc1cccc(-c2sc(C)nc2C(=O)N2CCSC2CNC(=O)c2cnn(C)c2C(F)(F)F)c1` (racemic) [Example 142, rac-1-Methyl-5-trifluoromethyl-1H-pyrazole-4-carboxylic acid [3-(2-methyl-5-m-tolyl-thiazole-4-carbonyl)-thiazolidin-2-ylmethyl]-amide], the IC50 was determined as 5 nM in experiment [1] and 12 nM in experiment [2].

As to `COc1ncccc1C(=O)NCC1SCCN1C(=O)c1nc(C)sc1-c1cccc(C)c1` (racemic) [Example 160, rac-2-Methoxy-N-[3-(2-methyl-5-m-tolyl-thiazole-4-carbonyl)-thiazolidin-2-ylmethyl]-nicotinamide], the IC50 was 4 nM in experiment [1] and 15 nM in experiment [2].

Consider `Cc1cccc(-c2sc(C)nc2C(=O)N2CCSC2CNC(=O)c2cccc(C(F)(F)F)n2)c1` (racemic) [Example 162, rac-6-Trifluoromethyl-pyridine-2-carboxylic acid [3-(2-methyl-5-m-tolyl-thiazole-4-carbonyl)-thiazolidin-2-ylmethyl]-amide], for which the IC50 is 5 nM in experiment [1] and 41 nM in experiment [2].

For the molecule `Cc1cccc(-c2sc(C)nc2C(=O)N2CCSC2CNC(=O)c2nc(C)oc2C)c1` (racemic) [Example 163, rac-2,5-Dimethyl-oxazole-4-carboxylic acid [3-(2-methyl-5-m-tolyl-thiazole-4-carbonyl)-thiazolidin-2-ylmethyl]-amide], the 50% inhibitory concentration (IC50) stood at 5 nM in experiment [1] and 8 nM in experiment [2].

Regarding `Cc1cccc(-c2sc(C)nc2C(=O)N2CCSC2CNC(=O)c2sc(C)nc2C)c1` (racemic) [Example 165, rac-2,4-Dimethyl-thiazole-5-carboxylic acid [3-(2-methyl-5-m-tolyl-thiazole-4-carbonyl)-thiazolidin-2-ylmethyl]-amide], the IC50 in experiment [1] amounted to 6 nM; in experiment [2] it was 5 nM.

Regarding `CNC(=O)[C@@H](c1ccccc1)N1CCc2cc(OC)c(OC)cc2[C@@H]1CCc1ccc(C(F)(F)F)cc1` [(2R)-2-{(1S)-6,7-dimethoxy-1-[2-(4-trifluoromethyl-phenyl)-ethyl]-3,4-dihydro-1H-isoquinolin-2-yl}-N-methyl-2-phenyl-acetamide], the memory function entry in experiment [3] is “enhance memory function”. Moreover, the “activity in model of post-traumatic stress disorder” value in experiment [4] is reported as “active”. In addition, in experiment [5], the “alertness (active wake and locomotion)” value was “decrease alertness”; the “time spent in REM and NREM sleep” value is “dose-dependently increase the time spent in both REM and NREM sleep”.
